Columns and labels:
[1] = tested on: linearized pUC19 plasmid DNA; test: Melting temperature assay; type: biochemical; details: 100 or 500 μM for 3 h
Protocol: Columns, mean; error bars, SD; n=2 independent analyses. For (A) and (C), points, mean; error bars, SD; n=3 technical replicates.
Melting Temperature Assay. Linearized pUC19 DNA (750 ng), prepared as described above, was incubated with the indicated concentration of either MMS or KL-50 adjusted in a final volume of 18 μL in 100 mM Tris buffer (pH 7.4) for 3 h. Drug stock concentrations were made in DMSO such that each reaction contained a fixed 5% DMSO concentration. Afterwards, 1 μL each of 20×SYBR Green dye (Invitrogen) and 20×ROX reference dye (Invitrogen) was added and melting temperature analysis was run on a StepOnePlus RT PCR System (Applied Biosciences) to generate melting temperature curves.

[2] = tested on: PD20 cells, deficient in FANCD2 (FANCD2−/−) or complemented with FANCD2; test: Short-term viability assay, PD20 cells; type: cell-based, human; details: PD20 FANCD2−/− vs +FANCD2
Protocol: (§1) FIGS. 8A-8K. (FIG. 8A) Change in percent cells with 1 micronuclei from baseline (DMSO control) after treatment as in FIGS. 5A and 5C. […] (FIG. 8B) Short-term viability assay curves for KL-50 in PD20 cells, deficient in FANCD2 (FANCD2−/−) or complemented with FANCD2 (+FANCD2). (FIG. 8C) Short-term viability assay curves for KL-50 in PEO4 (BRCA2+) and PEO1 (BRCA2−/−) cells pre-treated with 0.01% DMSO control or 10 μM O^6BG (+O^6BG) for 1 h prior to KL-50 addition. (FIG. 8D) Short-term viability assay curves for KL-50 in DLD1 BRCA2+/− and BRCA2−/−cells pre-treated with 0.01% DMSO control or 10 μM O^6BG (+O^6BG) for 1 h prior to KL-50 addition. For FIGS. 8B-8D, points, mean; error bars, SD; n=3 technical replicates. […] Change in percent cells with 1 micronuclei from baseline (DMSO control) after treatment with olaparib (10 μM) for 48 h in LN229 MGMT+/−, MMR+/−cells. […] Western blot analysis of FANCD2 ubiquitination in LN229 MGMT+/−, MMR+/−cells and PD20 FANCD2-deficient cells, complemented with empty vector (FANCD2+EV), wildtype FANCD2 (PD20+FD2) or ubiquitination-mutant FANCD2 (PD20+KR). The % FANCD2 ubiquitination (% FANCD2 Ub) is quantified as the background-corrected integrated band intensity of the upper band divided by the sum of the background-corrected integrated band intensities of the upper and lower bands. The fold change in % FANCD2 ubiquitination is presented for each cell line relative to DMSO-treated cells. Vinculin serves as loading control. For 8J-8K, points, mean; error bars, SD; n=3 technical replicates.
(§2) Short-term Cell Viability Assay. Cells were seeded in 96-well plates at 1000 or 2000 cells/well and allowed to adhere at 23° C. for 60 min and then incubated overnight at 37° C. […] Cells were imaged on a Cytation 3 imaging reader (BioTek) and quantified using CellProfiler software. For in vitro short-term growth delay experiments, IC50 values were determined from the nonlinear regression equation, [inhibitor] vs normalized response with variable slope.

[3] = tested on: PEO4 (BRCA2+) and PEO1 (BRCA2−/−) cells; test: Short-term viability assay, PEO1/PEO4 model +/- O6BG; type: cell-based, human; details: PE01/4 model
Protocol: FIGS. 8A-8K. (FIG. 8A) Change in percent cells with 1 micronuclei from baseline (DMSO control) after treatment as in FIGS. 5A and 5C. […] (FIG. 8B) Short-term viability assay curves for KL-50 in PD20 cells, deficient in FANCD2 (FANCD2−/−) or complemented with FANCD2 (+FANCD2). (FIG. 8C) Short-term viability assay curves for KL-50 in PEO4 (BRCA2+) and PEO1 (BRCA2−/−) cells pre-treated with 0.01% DMSO control or 10 μM O^6BG (+O^6BG) for 1 h prior to KL-50 addition. (FIG. 8D) Short-term viability assay curves for KL-50 in DLD1 BRCA2+/− and BRCA2−/−cells pre-treated with 0.01% DMSO control or 10 μM O^6BG (+O^6BG) for 1 h prior to KL-50 addition. For FIGS. 8B-8D, points, mean; error bars, SD; n=3 technical replicates. […] The % FANCD2 ubiquitination (% FANCD2 Ub) is quantified as the background-corrected integrated band intensity of the upper band divided by the sum of the background-corrected integrated band intensities of the upper and lower bands. […]
as §2, with “Assay.” for “Assay. Cells were seeded in 96-well plates at 1000 or 2000 cells/well and allowed to adhere at 23° C. for 60 min and then incubated overnight at 37° C.”

[4] = tested on: DLD1 BRCA2+/− and BRCA2−/− cells; test: Short-term viability assay, DLD1 BRCA2 isogenic model +/- O6BG; type: cell-based, human; details: DLD1 isogenic model
Protocol: as §1, §2

Row | SMILES | change in DNA melting temperature [1] | sensitivity of FANCD2-deficient cells [2] | therapeutic index (TI) [3] [fold] | therapeutic index (TI), ratio of IC50 values in MGMT+/BRCA2+ cells compared to MGMT−/BRCA2− cells [4] [fold]
1 | COS(C)(=O)=O [MMS, Methylmethane sulfonate, reference compound] | comparable changes in measured DNA melting temperature |  |  | 
2 | N.N.[Cl][Pt][Cl] [cisplatin, reference compound] |  | hypersensitivity to crosslinking agents in FANCD2−/−cells | 13 | 42
